According to US20240049707A1, “PESTICIDE COMPOSITIONS OF LICOCHALCONE C” (METABOLIC INSIGHTS LTD., priority 2020, published 2024):

Tested on: Sclerotinia sclerotiorum
Experiment: Microplate based screening of bioactivity against Sclerotinia sclerotiorum
Type: cell-based
Settings: 10 μl of 250 ppm solution + 40 μl inoculum, activity grade x repeats x days of activity/252 x 100
Protocol: Diluted in DMSO purified Licochalcone C was added to microplate wells and mixed with 50 μl of hyphae suspension and growth of the fungus starting from blended hyphae was monitored by visual inspection. Dilute the inoculum stock 1:10 in PDBC—2 ml in 20 ml, or calculate the dilution needed, to prepare final concentration of 2000 CFU/ml. The final number of hyphae should be 100 CFU in each well. Microplate Preparation for Activity Experiment: • 1) Take a stock solution of purified 1% Licochalcone C in DMSO from the −20 freezer and thaw it on the bench. • 2) Take 1 μl of stock solution of 1% Licochalcone C and dilute up to 250 ppm with 39 μl of water. • 3) Take 10 μl of the diluted (250 ppm) Licochalcone C solution into the wells of the microplate using a multi-pipette. • 4) Add 40 μl of vigorously mixed spore suspension inoculum to the wells of the microplate using a multi-pipette. • 5) Seal the plate with transparent sealer • 6) Shake the plate for 10 min at 2000 RPM to mix the Licochalcone C with the hyphae suspension • 7) Centrifugate the plate at 1000RCF for is and stop to collect the liquid at the bottom of the plate. • 8) Collect the plates on the bench until all microplates are ready for incubation. • 9) Insert microplates into a plastic box and put the box in the incubator at 21° C. […]

## COc1c(/C=C/C(=O)c2ccc(O)cc2)ccc(O)c1CC=C(C)C [Licochalcone C, (E)-3-[4-hydroxy-2-methoxy-3-(3-methylbut-2-enyl)phenyl]-1-(4-hydroxyphenyl)prop-2-en-1-one]
  Relative Activity value (%): 13%
